Experimental data: the kinase profiling compilation of Christmann-Franck et al. (2016)

How the values were obtained:
Assay in all cases: radiometric filter-binding kinase assay
[1] = system: SGK1 (human), O00141 [S422D]
EPHB1 (human) = EPHB1 (human) (UniProt P54762)
PIM3 (human) = PIM3 (human) (UniProt Q86V86)
PRKCA (human) = PRKCA (human) (UniProt P17252)
MAPK12 (human) = MAPK12 (human) (UniProt P53778)
MAPK14 (human) = MAPK14 (human) (UniProt Q16539)
FLT1 (human) = FLT1 (human) (UniProt P17948)
MAP3K7 TAB1 (human) = MAP3K7 TAB1 (human) (UniProt Q15750+O43318)
MYLK (human) = MYLK (human) (UniProt Q15746)
MYLK (human), sequence (Q15746 whole entry, looked up): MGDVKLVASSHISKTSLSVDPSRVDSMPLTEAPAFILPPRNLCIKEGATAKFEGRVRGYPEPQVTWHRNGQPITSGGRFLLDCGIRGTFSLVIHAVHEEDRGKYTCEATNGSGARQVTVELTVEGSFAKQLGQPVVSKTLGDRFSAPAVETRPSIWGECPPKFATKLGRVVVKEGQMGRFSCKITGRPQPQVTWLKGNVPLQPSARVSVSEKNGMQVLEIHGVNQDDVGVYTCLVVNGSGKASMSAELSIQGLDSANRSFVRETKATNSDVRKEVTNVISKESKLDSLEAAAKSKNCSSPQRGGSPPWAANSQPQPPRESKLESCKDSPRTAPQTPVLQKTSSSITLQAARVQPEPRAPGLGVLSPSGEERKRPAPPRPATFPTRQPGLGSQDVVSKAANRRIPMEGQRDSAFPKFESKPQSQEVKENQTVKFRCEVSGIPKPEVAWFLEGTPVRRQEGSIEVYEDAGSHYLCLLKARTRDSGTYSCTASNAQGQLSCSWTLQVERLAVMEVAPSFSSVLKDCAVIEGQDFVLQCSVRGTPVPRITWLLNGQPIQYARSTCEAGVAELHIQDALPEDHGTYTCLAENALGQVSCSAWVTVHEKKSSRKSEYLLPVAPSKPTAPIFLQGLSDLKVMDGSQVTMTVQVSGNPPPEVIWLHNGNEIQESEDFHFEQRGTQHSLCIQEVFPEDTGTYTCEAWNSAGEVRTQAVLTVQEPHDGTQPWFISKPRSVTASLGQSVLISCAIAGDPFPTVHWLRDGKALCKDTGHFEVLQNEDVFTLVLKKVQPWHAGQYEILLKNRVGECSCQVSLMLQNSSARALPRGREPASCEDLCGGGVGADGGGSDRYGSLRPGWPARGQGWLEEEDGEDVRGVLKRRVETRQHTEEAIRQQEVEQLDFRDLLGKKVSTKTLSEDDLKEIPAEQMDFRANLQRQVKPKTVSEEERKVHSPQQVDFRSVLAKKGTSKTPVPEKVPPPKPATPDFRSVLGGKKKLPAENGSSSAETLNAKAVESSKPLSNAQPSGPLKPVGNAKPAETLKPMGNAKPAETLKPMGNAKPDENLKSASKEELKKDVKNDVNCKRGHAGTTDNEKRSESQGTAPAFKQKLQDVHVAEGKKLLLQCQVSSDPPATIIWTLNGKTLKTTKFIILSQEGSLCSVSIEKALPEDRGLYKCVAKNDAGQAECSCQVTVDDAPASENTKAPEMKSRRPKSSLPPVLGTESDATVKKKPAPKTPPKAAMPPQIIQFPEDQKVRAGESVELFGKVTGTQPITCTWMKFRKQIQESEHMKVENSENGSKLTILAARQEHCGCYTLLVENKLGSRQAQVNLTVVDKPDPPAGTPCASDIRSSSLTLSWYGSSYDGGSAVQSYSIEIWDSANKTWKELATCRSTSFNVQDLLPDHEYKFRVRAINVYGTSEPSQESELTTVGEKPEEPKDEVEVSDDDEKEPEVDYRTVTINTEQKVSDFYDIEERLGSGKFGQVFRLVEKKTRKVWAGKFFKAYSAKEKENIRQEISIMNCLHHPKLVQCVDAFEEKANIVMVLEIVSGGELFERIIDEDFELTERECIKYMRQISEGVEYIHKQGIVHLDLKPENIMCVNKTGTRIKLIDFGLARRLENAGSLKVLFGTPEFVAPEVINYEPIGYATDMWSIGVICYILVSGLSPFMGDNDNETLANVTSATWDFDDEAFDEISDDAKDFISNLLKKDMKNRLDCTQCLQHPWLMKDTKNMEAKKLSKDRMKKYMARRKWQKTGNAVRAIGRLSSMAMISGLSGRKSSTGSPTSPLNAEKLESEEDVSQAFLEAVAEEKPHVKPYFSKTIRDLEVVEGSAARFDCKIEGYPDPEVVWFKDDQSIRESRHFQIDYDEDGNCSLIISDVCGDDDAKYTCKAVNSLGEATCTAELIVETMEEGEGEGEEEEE

EPHA2 (human) = EPHA2 (human) (UniProt P29317)
EPHA2 (human), sequence (P29317 whole entry, looked up): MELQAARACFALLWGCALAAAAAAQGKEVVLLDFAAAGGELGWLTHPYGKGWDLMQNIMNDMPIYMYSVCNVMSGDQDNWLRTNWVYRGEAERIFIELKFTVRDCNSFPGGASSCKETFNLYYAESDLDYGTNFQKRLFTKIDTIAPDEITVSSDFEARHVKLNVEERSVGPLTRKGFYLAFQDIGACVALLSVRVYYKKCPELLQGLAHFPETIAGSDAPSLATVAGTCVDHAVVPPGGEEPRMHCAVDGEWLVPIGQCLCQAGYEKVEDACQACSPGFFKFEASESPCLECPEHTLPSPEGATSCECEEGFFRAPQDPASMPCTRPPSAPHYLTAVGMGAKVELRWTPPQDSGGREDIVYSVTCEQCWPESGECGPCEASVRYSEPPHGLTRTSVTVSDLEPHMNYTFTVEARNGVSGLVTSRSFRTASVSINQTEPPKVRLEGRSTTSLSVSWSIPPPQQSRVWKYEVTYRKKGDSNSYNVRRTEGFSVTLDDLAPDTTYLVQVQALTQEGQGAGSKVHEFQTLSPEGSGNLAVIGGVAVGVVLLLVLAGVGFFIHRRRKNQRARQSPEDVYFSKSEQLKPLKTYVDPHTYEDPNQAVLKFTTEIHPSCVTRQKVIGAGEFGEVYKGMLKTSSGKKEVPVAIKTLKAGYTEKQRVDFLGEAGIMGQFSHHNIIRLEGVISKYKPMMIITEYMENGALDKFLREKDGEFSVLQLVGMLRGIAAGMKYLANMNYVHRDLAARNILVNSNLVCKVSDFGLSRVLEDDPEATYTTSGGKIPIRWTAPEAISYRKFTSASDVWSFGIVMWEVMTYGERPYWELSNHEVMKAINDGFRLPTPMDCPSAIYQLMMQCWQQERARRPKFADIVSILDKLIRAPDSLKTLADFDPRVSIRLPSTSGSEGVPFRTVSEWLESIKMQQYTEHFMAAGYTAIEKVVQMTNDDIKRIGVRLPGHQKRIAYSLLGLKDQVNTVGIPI

IKBKE (human) = IKBKE (human) (UniProt Q14164)
IKBKE (human), sequence (Q14164 whole entry, looked up): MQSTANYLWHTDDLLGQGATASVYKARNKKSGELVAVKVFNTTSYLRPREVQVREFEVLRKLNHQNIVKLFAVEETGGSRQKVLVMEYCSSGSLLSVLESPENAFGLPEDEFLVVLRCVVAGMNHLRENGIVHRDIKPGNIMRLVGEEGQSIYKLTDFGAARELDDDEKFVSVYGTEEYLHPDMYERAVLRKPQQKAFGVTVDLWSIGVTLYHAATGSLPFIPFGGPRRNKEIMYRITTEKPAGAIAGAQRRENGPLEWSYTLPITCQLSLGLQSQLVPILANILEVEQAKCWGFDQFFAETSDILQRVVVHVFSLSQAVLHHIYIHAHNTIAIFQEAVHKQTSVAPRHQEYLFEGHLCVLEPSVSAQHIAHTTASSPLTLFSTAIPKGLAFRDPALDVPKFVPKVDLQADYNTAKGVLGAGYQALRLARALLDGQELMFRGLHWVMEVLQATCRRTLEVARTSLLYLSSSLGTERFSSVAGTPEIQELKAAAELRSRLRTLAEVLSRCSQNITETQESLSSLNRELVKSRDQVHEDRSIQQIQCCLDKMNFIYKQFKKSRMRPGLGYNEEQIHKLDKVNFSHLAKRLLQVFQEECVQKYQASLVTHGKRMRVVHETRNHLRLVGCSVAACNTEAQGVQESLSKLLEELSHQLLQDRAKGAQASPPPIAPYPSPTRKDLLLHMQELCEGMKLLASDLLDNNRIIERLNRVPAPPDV

MARK1 (human) = MARK1 (human) (UniProt Q9P0L2)
GCK (human) = GCK (human) (UniProt Q12851)
EPHB4 (human) = EPHB4 (human) (UniProt P54760)
RPS6KA1 KD1 KD2 (human) = RPS6KA1 KD1 KD2 (human) (UniProt Q15418)
PKN2 (human) = PKN2 (human) (UniProt Q16513)
TTK (human) = TTK (human) (UniProt P33981)
DYRK3 (human) = DYRK3 (human) (UniProt O43781)
MAPKAPK2 (human) = MAPKAPK2 (human) (UniProt P49137)
MELK (human) = MELK (human) (UniProt Q14680)
IRAK4 (human) = IRAK4 (human) (UniProt Q9NWZ3)
DYRK2 (human) = DYRK2 (human) (UniProt Q92630)
DAPK1 (human) = DAPK1 (human) (UniProt P53355)
PIM1 (human) = PIM1 (human) (UniProt P11309)
CLK2 (human) = CLK2 (human) (UniProt P49760)
CHEK2 (human) = CHEK2 (human) (UniProt O96017)
MAPKAPK5 (human) = MAPKAPK5 (human) (UniProt Q8IW41)
EPHB2 (human) = EPHB2 (human) (UniProt P29323)
MARK2 (human) = MARK2 (human) (UniProt Q7KZI7)
TAOK1 (human) = TAOK1 (human) (UniProt Q7L7X3)
STK3 (human) = STK3 (human) (UniProt Q13188)
STK3 (human), sequence (Q13188 whole entry, looked up): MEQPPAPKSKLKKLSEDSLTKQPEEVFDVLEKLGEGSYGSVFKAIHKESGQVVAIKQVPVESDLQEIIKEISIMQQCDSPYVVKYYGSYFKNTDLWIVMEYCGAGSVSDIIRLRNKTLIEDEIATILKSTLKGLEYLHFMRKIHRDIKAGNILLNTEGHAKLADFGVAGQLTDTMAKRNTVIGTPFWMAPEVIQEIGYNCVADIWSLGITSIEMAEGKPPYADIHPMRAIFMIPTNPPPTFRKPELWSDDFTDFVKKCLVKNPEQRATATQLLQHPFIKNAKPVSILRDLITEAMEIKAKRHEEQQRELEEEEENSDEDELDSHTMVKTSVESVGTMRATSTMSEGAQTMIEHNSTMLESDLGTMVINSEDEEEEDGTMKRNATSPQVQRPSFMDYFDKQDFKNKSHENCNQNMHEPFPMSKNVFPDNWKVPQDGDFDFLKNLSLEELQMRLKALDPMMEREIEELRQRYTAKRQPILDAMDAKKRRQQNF

NEK2 (human) = NEK2 (human) (UniProt P51955)
[2] = system: RPS6KB1 (human), P23443 [T412E]
RPS6KB1 (human), P23443 [T412E], sequence (P23443 whole entry T412E, looked up): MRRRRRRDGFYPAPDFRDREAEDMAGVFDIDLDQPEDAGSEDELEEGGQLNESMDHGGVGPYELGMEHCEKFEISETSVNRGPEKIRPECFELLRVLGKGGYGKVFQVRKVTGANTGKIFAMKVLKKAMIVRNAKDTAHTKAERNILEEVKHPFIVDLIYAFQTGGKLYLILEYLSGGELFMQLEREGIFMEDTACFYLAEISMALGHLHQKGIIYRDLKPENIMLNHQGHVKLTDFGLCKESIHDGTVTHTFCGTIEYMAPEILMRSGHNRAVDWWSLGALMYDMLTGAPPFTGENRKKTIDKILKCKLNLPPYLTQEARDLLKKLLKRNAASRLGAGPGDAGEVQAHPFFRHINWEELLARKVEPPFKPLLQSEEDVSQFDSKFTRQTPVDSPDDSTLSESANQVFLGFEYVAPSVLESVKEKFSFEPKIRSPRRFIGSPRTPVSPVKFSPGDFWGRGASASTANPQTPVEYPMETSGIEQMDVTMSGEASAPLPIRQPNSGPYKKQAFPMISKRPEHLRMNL

ROCK2 (rat) = conditions: accession and sequence are those of the human protein
HIPK2 (human) = HIPK2 (human) (UniProt Q9H2X6)

- residual activity ([1]; compound 10.0 µM): 103%
- residual activity ([1]; compound 50.0 µM): 54%
- residual activity ([1]; compound 100.0 µM): 48%
- residual activity (EPHB1 (human); compound 10.0 µM): 110%
- residual activity (EPHB1 (human); compound 100.0 µM): 97%
- residual activity (PIM3 (human); compound 10.0 µM): 18%
- residual activity (PIM3 (human); compound 50.0 µM): 5%
- residual activity (PIM3 (human); compound 100.0 µM): 7%
- residual activity (PRKCA (human); compound 10.0 µM): 94%
- residual activity (PRKCA (human); compound 50.0 µM): 60%
- residual activity (PRKCA (human); compound 100.0 µM): 90%
- residual activity (MAPK12 (human); compound 10.0 µM): 95%
- residual activity (MAPK12 (human); compound 50.0 µM): 80%
- residual activity (MAPK12 (human); compound 100.0 µM): 83%
- residual activity (MAPK14 (human); compound 10.0 µM): 97%
- residual activity (MAPK14 (human); compound 50.0 µM): 122%
- residual activity (MAPK14 (human); compound 100.0 µM): 90%
- residual activity (FLT1 (human); compound 10.0 µM): 65%
- residual activity (FLT1 (human); compound 100.0 µM): 11%
- residual activity (MAP3K7 TAB1 (human); compound 10.0 µM): 83%
- residual activity (MAP3K7 TAB1 (human); compound 100.0 µM): 72%
- residual activity (MYLK (human); compound 10.0 µM): 76%
- residual activity (MYLK (human); compound 50.0 µM): 39%
- residual activity (MYLK (human); compound 100.0 µM): 20%
- residual activity (EPHA2 (human); compound 10.0 µM): 82%
- residual activity (EPHA2 (human); compound 50.0 µM): 64%
- residual activity (EPHA2 (human); compound 100.0 µM): 40%
- residual activity (IKBKE (human); compound 10.0 µM): 69%
- residual activity (IKBKE (human); compound 50.0 µM): 47%
- residual activity (IKBKE (human); compound 100.0 µM): 12%
- residual activity (MARK1 (human); compound 10.0 µM): 59%
- residual activity (MARK1 (human); compound 100.0 µM): 68%
- residual activity (GCK (human); compound 10.0 µM): 76%
- residual activity (GCK (human); compound 100.0 µM): 14%
- residual activity (EPHB4 (human); compound 10.0 µM): 82%
- residual activity (EPHB4 (human); compound 100.0 µM): 49%
- residual activity (RPS6KA1 KD1 KD2 (human); compound 10.0 µM): 80%
- residual activity (RPS6KA1 KD1 KD2 (human); compound 50.0 µM): 9%
- residual activity (RPS6KA1 KD1 KD2 (human); compound 100.0 µM): 12%
- residual activity (PKN2 (human); compound 10.0 µM): 85%
- residual activity (PKN2 (human); compound 50.0 µM): 85%
- residual activity (PKN2 (human); compound 100.0 µM): 59%
- residual activity (TTK (human); compound 10.0 µM): 76%
- residual activity (TTK (human); compound 100.0 µM): 48%
- residual activity (DYRK3 (human); compound 10.0 µM): 54%
- residual activity (DYRK3 (human); compound 50.0 µM): 47%
- residual activity (DYRK3 (human); compound 100.0 µM): 6%
- residual activity (MAPKAPK2 (human); compound 10.0 µM): 77%
- residual activity (MAPKAPK2 (human); compound 50.0 µM): 32%
- residual activity (MAPKAPK2 (human); compound 100.0 µM): 30%
- residual activity (MELK (human); compound 10.0 µM): 46%
- residual activity (MELK (human); compound 50.0 µM): 64%
- residual activity (MELK (human); compound 100.0 µM): 21%
- residual activity (IRAK4 (human); compound 10.0 µM): 82%
- residual activity (IRAK4 (human); compound 100.0 µM): 34%
- residual activity (DYRK2 (human); compound 10.0 µM): 63%
- residual activity (DYRK2 (human); compound 50.0 µM): 84%
- residual activity (DYRK2 (human); compound 100.0 µM): 33%
- residual activity (DAPK1 (human); compound 10.0 µM): 107%
- residual activity (DAPK1 (human); compound 100.0 µM): 83%
- residual activity (PIM1 (human); compound 10.0 µM): 26%
- residual activity (PIM1 (human); compound 50.0 µM): 5%
- residual activity (PIM1 (human); compound 100.0 µM): 7%
- residual activity (CLK2 (human); compound 10.0 µM): 81%
- residual activity (CLK2 (human); compound 100.0 µM): 30%
- residual activity (CHEK2 (human); compound 10.0 µM): 79%
- residual activity (CHEK2 (human); compound 50.0 µM): 52%
- residual activity (CHEK2 (human); compound 100.0 µM): 33%
- residual activity (MAPKAPK5 (human); compound 10.0 µM): 52%
- residual activity (MAPKAPK5 (human); compound 50.0 µM): 25%
- residual activity (MAPKAPK5 (human); compound 100.0 µM): 15%
- residual activity (EPHB2 (human); compound 10.0 µM): 93%
- residual activity (EPHB2 (human); compound 100.0 µM): 13%
- residual activity (MARK2 (human); compound 10.0 µM): 64%
- residual activity (MARK2 (human); compound 100.0 µM): 49%
- residual activity (TAOK1 (human); compound 10.0 µM): 83%
- residual activity (TAOK1 (human); compound 100.0 µM): 18%
- residual activity (STK3 (human); compound 10.0 µM): 60%
- residual activity (STK3 (human); compound 50.0 µM): 36%
- residual activity (STK3 (human); compound 100.0 µM): 20%
- residual activity (NEK2 (human); compound 10.0 µM): 73%
- residual activity (NEK2 (human); compound 50.0 µM): 52%
- residual activity (NEK2 (human); compound 100.0 µM): 19%
- residual activity ([2]; compound 10.0 µM): 78%
- residual activity ([2]; compound 50.0 µM): 66%
- residual activity ([2]; compound 100.0 µM): 38%
- residual activity (ROCK2 (rat); compound 10.0 µM): 91%
- residual activity (ROCK2 (rat); compound 50.0 µM): 49%
- residual activity (ROCK2 (rat); compound 100.0 µM): 75%
- residual activity (HIPK2 (human); compound 10.0 µM): 99%
- residual activity (HIPK2 (human); compound 50.0 µM): 58%
- residual activity (HIPK2 (human); compound 100.0 µM): 19%
Compound: N#Cc1c(O)c2c(-c3ccc(-c4ccccc4O)cc3)csc2[nH]c1=O
